The values below come from patent publication US5811439A, “Thiazolidinedione derivatives, method for preparing the derivatives and pharmaceutical compositions containing same” (Senga Pharmaceutical Laboratory Inc., priority 1995, dated 1998).

As a reminder, the LD50 is the dose expected to kill half of the subjects tested. Read a high LD50 as lower toxicity.

The first data set concerns 3T3-L1 cells. Description: Glucose-uptake test (2-DOG uptake) in 3T3-L1 cells. Format: cell-based. As to conditions: 24 hours, cpm divided by amount of proteins. The method, then:
Glucose-uptake tests as a means for screening compounds for the effect of reducing the blood sugar level were carried out according to the following procedures. 1) Cell: The following cells were used. 3T3-L1 (purchased from Dainippon Pharmaceutical Co. Ltd.) 2) Reagents: The following reagents were used. DMEM (GIBCO); FBS (GIBCO); […] DMSO: dimethylsulfoxide (Wako Pure Chemical Co., Ltd.); ACS2 (Amersham); urea (Wako Pure Chemical Co., Ltd.); protein-determining kit (Bio Rad Code No.). 3) Instrument: The following instrument was used in the test. 24-well plate (Falcon) 3T3-L1 cells were dispersed in a 10% FBS-containing DME medium in a cell concentration of 10000 cells/ml, the resulting cell suspension was dispensed into a 24-well plate in an amount of 1 ml per well and the cells were cultivated in a 5% CO2 -incubator at 37° C. for 5 days. After soaking up the medium in the wells, the plate was washed once with PBS in an amount of 2 ml/well. […] The cells were cultivated in a sample compound-containing medium at 37° C. for 24 hours in a 5%-CO2 -incubator. After the cultivation, the medium was soaked up and the plate was washed three times with 2 ml/well each of PBS. […] After washing with 2 ml/well of PBS, the PBS was sufficiently soaked up. […] The lysate was also inspected for the amount of proteins using 0.2 ml out of the rest of the lysate, according to the microassay method using a protein-determining kit.
For the compound `Cl.O=C1NC(=O)C(Cc2cccc3c2ccn3Cc2ccccn2)S1` (centres unmarked) [Example 337, 5-[1-(2-picolyl)indol-4-yl]methyl-2,4-thiazolidinedione hydrochloride], the “2-DOG Uptake (%) at a concentration of 50 μg/ml” value is on record as 181%.

The same data set, now with this note: Mus musculus, 3T3-L1, 24 h, 50 μg/ml, cpm divided by amount of proteins, read-out: 2-DOG Uptake (%) at a concentration of 50 μg/ml.
Turning to `O=C1NC(=O)C(Cc2cccc3c2ccn3Cc2ccccc2)S1` (centres unmarked) [Example 3, 5-(1-benzylindol-4-yl)methyl-2,4-thiazolidinedione], the activity at 50 µg/mL was found to be 217%.

On to `N#Cc1cccc(Cn2cc(CC3SC(=O)NC3=O)c3ccccc32)c1` (centres unmarked) [Example 283, 5-[1-(3-cyanobenzyl)indol-3-yl]methyl-2,4-thiazolidinedione], for which the activity at 50 µg/mL is 232%.

`O=C1NC(=O)C(Cc2cccc3c2ccn3Cc2cc(F)cc(F)c2)S1` (centres unmarked) [Example 71, 5-[1-(3,5-difluorobenzyl)indol-4-yl]-methyl-2,4-thiazolidinedione]: the activity at 50 µg/mL was found to be 250%.

On to `O=C1NC(=O)C(Cc2cn(Cc3ccccc3)c3ccccc23)S1` (centres unmarked) [Example 288, 5-(1-benzylindol-3-yl)methyl-2,4-thiazolidinedione], for which the activity at 50 µg/mL stood at 209%.

As for `O=C1NC(=O)C(Cc2cccc3c2ccn3CCc2ccccc2)S1` (centres unmarked) [Example 121, 5-(1-phenethylindol-4-yl)methyl-2,4-thiazolidinedione], the activity at 50 µg/mL is 218%.

Consider `O=C1NC(=O)C(Cc2cccc3c2ccn3Cc2ccc(C(F)(F)F)cc2C(F)(F)F)S1` (centres unmarked) [Example 83, 5-{1-[2,4-bis(trifluoromethyl)-benzyl]indol-4-yl}methyl-2,4-thiazolidine-dione], for which the activity at 50 µg/mL was determined as 199%.

As for `O=C1NC(=O)C(Cc2cccc3c2ccn3Cc2cccc(F)c2)S1` (centres unmarked) [Example 50, 5-[1-(3-fluorobenzyl)indol-4-yl]-methyl-2,4-thiazolidinedione], the activity at 50 µg/mL amounted to 201%.

Turning to `COc1ccc(Cn2ccc3c(CC4SC(=O)NC4=O)cccc32)cc1OC` (centres unmarked) [Example 92, 5-[1-(3,4-dimethoxybenzyl)indol-4-yl]methyl-2,4-thiazolidinedione], the activity at 50 µg/mL was found to be 190%.

For `N#Cc1cccc(Cn2ccc3c(CC4SC(=O)NC4=O)cccc32)c1` (centres unmarked) [Example 101, 5-[1-(3-cyanobenzyl)indol-4-yl]methyl-2,4-thiazolidinedione], the activity at 50 µg/mL is 240%.

`Cc1ccc(S(=O)(=O)n2ccc3c(CC4SC(=O)NC4=O)cccc32)cc1` (centres unmarked) [Example 24, 5-[1-(p-toluenesulfonyl)indol-4-yl]-methyl-2,4-thiazolidinedione]: the activity at 50 µg/mL stood at 186%.

Take `O=C1NC(=O)C(Cc2cn(Cc3ccc(Cl)cc3)c3ccccc23)S1` (centres unmarked) [Example 253, 5-[1-(4-chlorobenzyl)indol-3-yl]methyl-2,4-thiazolidinedione]: the activity at 50 µg/mL was 203%.

In the case of `O=C1NC(=O)C(Cc2cccc3c2ccn3Cc2ccc(F)cc2)S1` (centres unmarked) [Example 52, 5-[1-(4-fluorobenzyl)indol-4-yl]-methyl-2,4-thiazolidinedione], the activity at 50 µg/mL was found to be 280%.

On to `O=C1NC(=O)C(Cc2cccc3c2ccn3Cc2cc(C(F)(F)F)cc(C(F)(F)F)c2)S1` (centres unmarked) [Example 214, 5-{1-[3,5-bis(trifluoromethyl)benzyl]indol-4-yl}methyl-2,4-thiazolidinedione], for which the activity at 50 µg/mL stood at 185%.

For `COC(=O)c1ccc(Cn2ccc3c(C=C4SC(=O)NC4=O)cccc32)cc1` [Example 8, 5-[1-(4-methoxycarbonylbenzyl)indol-4-yl]methylene-2,4-thiazolidinedione], the activity at 50 µg/mL worked out at 172%.

Turning to `Nc1ccc(Cn2cc(CC3SC(=O)NC3=O)c3ccccc32)cc1` (centres unmarked) [Example 256, 5-[1-(4-aminobenzyl)indol-3-yl]methyl-2,4-thiazolidinedione], the activity at 50 µg/mL worked out at 172%.

In the case of `Cc1c(C)c2c(c(C)c1O)CCC(C)(COc1ccc(CC3SC(=O)NC3=O)cc1)O2` (racemic) [CS-045, (±)5-[4(6-hydroxy-2,5,7,8-tetramethylchroman-2-yl-methoxy)benzyl2,4-thazolidinedione, reference compound], the activity at 50 µg/mL amounted to 172%.

As for `O=C1NC(=O)C(Cc2cccc3c2ccn3Cc2cccc(C(F)(F)F)c2)S1` (centres unmarked) [Example 77, 5-[1-(3-trifluoromethylbenzyl)indol-4-yl]methyl-2,4-thiazolidinedione], the activity at 50 µg/mL was determined as 185%.

Regarding `O=C1NC(=O)C(Cc2cc3ccccc3n2Cc2ccccc2)S1` (centres unmarked) [Example 312, 5-(1-benzylindol-2-yl)methyl-2,4-thiazolidinedione], the activity at 50 µg/mL amounted to 164%.

As for `O=C1NC(=O)C(=Cc2cccc3c2ccn3Cc2ccccc2)S1` [Example 2, 5-(1-benzylindol-4-yl)methylene-2,4-thiazolidinedione], the activity at 50 µg/mL worked out at 182%.

In the case of `Cc1nc(Cn2ccc3c(CC4SC(=O)NC4=O)cccc32)cs1` (centres unmarked) [Example 142, 5-{1-[(2-methylthiazol-4-yl)methyl]indol-4-yl}methyl-2,4-thiazolidinedione], the activity at 50 µg/mL stood at 160%.

For the compound `CCC(CC)Cn1ccc2c(C=C3SC(=O)NC3=O)cccc21` [Example 158, 5-[1-(2-ethylbutyl)indol-4-yl]methylene-2,4-thiazolidinedione], the activity at 50 µg/mL was determined as 221%.

For `O=C1NC(=O)C(Cc2cccc3c2ccn3Cc2ccncc2)S1` (centres unmarked) [Example 6, 5-[1-(4-picolyl)indol-4-yl]methyl-2,4-thiazolidinedione], the activity at 50 µg/mL was found to be 166%.

With `O=C1NC(=O)C(Cc2cn(Cc3ccc(C(F)(F)F)cc3)c3ccccc23)S1` (centres unmarked) [Example 271, 5-{1-[4-(trifluoromethyl)benzyl]indol-3-yl}methyl-2,4-thiazolidinedione], the activity at 50 µg/mL came to 165%.

Test system in the next data set: not listed separately
The data set is described as follows: Acute toxicity test, oral administration to rats. Particulars: rat, in vivo, orally administered. As to the method:
The acute toxicity was determined by an acute toxicity test wherein each sample compound was orally administered to rats. The results (LD50 values) thus obtained are listed below: […]
For the compound `O=C1NC(=O)C(Cc2cccc3c2ccn3Cc2ccccc2)S1` (centres unmarked) [Example 3, 5-(1-benzylindol-4-yl)methyl-2,4-thiazolidinedione], the LD50 was not below 2000 mg/kg.

The compound `O=C1NC(=O)C(Cc2cccc3c2ccn3Cc2ccc(F)cc2)S1` (centres unmarked) [Example 52, 5-[1-(4-fluorobenzyl)indol-4-yl]-methyl-2,4-thiazolidinedione] gave a median lethal dose (LD50) not below 2000 mg/kg.
